# Test results from publication PMC3179844 (Chemmedchem, 2011).
# Key:
# [1] = biological target: human cytochrome P450 3A4-BQ (Homo sapiens, UniProt P08684); assay: Inhibition of human cytochrome P450 3A4-BQ
# [2] = biological target: T1, human cytochrome P450 1A2 (Homo sapiens, UniProt P05177); assay: Inhibition of human cytochrome P450 1A2; assay type: in vitro ADME
# T1 sequence (P05177 1-516): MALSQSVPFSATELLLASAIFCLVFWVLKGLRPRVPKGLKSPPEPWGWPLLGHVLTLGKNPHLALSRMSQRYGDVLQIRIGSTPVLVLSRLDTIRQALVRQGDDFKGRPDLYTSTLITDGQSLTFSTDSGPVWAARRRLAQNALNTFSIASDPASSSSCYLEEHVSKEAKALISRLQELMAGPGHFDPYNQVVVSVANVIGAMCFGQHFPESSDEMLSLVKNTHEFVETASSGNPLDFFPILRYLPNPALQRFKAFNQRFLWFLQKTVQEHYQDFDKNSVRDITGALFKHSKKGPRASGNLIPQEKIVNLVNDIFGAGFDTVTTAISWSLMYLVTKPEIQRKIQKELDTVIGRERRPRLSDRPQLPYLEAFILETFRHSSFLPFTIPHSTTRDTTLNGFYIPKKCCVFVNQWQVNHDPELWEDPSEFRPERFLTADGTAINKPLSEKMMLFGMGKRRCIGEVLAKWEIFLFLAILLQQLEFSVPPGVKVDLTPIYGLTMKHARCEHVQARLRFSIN
# [3] = biological target: human cytochrome P450 2C9 (Homo sapiens, UniProt P11712); assay: Inhibition of human cytochrome P450 2C9; assay type: in vitro ADME
# [4] = biological target: human cytochrome P450 2D6 (Homo sapiens, UniProt P10635); assay: Inhibition of human cytochrome P450 2D6; assay type: in vitro ADME
# [5] = biological target: human cytochrome P450 2C19 (Homo sapiens, UniProt P33261); assay: Inhibition of human cytochrome P450 2C19; assay type: in vitro ADME
# [6] = biological target: human cytochrome P450 3A4-BFC (Homo sapiens, UniProt P08684); assay: Inhibition of human cytochrome P450 3A4-BFC; assay type: in vitro ADME
# mouse 11β-HSD1 = mouse 11β-HSD1 (Mus musculus, UniProt P50172); assay: Cellular 11β-HSD1 inhibition, mouse enzyme; assay type: cell-based; settings: mean of three measurements
# [7] = Metabolism studies in human liver microsomes; assay type: in vitro ADME; settings: for metabolites identified / half-life: human liver microsomes, 37 °C, NADPH; for microsomal CLint / half-life: human, liver microsomes; for half-life: 40 min, mean of two measurements
# [8] = Water solubility in Na2HPO4 buffer solution; assay type: physicochemical; settings: aqueous buffer
# Chain of human cytochrome P450 2C19 (P33261 whole entry): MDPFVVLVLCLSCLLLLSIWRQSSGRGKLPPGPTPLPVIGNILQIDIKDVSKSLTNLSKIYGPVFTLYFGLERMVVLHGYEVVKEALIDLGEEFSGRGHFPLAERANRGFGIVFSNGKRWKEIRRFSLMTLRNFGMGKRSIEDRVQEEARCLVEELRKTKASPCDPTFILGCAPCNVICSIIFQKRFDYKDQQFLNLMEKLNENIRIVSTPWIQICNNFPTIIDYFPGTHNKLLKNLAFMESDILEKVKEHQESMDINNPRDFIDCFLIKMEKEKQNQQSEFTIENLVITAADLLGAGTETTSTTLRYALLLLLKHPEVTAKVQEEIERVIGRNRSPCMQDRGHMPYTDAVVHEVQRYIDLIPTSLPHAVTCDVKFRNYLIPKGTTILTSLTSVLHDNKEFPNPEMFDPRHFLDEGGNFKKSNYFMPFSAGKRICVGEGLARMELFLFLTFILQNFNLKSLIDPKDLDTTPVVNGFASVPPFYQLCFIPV
# Chain of human cytochrome P450 3A4-BQ (P08684 whole entry): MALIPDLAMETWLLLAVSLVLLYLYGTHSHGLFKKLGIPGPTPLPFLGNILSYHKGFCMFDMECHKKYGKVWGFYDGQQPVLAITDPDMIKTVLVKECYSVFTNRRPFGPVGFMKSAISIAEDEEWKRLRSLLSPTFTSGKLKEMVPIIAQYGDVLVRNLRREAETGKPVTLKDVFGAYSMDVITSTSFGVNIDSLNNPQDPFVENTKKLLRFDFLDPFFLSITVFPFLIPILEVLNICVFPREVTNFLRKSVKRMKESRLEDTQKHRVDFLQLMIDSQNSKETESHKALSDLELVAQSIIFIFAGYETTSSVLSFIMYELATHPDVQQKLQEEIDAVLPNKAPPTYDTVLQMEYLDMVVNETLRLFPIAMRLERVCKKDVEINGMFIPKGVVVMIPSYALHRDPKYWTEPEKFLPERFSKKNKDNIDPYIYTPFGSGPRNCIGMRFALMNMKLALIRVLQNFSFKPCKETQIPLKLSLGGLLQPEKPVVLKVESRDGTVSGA
# Chain of human cytochrome P450 3A4-BFC (P08684 whole entry): as above
# Chain of mouse 11β-HSD1 (P50172 whole entry): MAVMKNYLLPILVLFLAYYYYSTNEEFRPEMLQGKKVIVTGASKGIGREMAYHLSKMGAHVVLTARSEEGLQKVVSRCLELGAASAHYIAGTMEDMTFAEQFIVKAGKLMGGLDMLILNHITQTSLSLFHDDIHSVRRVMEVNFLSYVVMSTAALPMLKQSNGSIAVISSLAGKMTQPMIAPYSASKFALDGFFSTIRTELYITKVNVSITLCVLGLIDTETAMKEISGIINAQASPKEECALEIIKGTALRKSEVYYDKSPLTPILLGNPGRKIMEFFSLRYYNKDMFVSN
# Chain of human cytochrome P450 2C9 (P11712 whole entry): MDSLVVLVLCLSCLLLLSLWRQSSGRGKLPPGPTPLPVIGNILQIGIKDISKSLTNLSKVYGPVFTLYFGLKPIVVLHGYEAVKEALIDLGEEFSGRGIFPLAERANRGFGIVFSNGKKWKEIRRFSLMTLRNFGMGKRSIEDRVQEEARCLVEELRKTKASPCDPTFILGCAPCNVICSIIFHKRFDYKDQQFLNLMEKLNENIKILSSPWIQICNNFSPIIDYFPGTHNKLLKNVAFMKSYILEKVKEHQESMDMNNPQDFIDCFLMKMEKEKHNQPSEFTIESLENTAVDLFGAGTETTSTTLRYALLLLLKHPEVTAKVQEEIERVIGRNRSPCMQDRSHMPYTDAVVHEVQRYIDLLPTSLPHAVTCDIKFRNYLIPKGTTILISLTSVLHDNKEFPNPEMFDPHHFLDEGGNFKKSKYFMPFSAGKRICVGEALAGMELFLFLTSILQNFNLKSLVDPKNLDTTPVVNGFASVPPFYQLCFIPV
# Chain of human cytochrome P450 2D6 (P10635 whole entry): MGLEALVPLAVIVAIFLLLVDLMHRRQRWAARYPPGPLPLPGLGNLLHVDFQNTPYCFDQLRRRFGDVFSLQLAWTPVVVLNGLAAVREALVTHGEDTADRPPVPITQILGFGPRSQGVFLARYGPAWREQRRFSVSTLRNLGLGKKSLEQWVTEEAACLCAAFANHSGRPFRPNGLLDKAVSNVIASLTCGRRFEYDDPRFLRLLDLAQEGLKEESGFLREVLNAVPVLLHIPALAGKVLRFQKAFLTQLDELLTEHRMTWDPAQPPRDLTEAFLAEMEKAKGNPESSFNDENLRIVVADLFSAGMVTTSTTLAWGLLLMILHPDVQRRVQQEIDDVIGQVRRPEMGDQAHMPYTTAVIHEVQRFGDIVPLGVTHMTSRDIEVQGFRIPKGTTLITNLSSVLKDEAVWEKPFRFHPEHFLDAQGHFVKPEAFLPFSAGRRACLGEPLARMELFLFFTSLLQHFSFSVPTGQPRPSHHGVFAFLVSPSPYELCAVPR
SMILES,melting point [°C],IC50 [1] [µM],IC50 [2] [µM],IC50 [3] [µM],IC50 [4] [µM],IC50 [5] [µM],IC50 [6] [µM],IC50 (mouse 11β-HSD1) [µM],metabolites identified [7],microsomal CLint [7] [µL/min/mg],half-life [7] [h],solubility [8] [µg/mL]
"O=C(C[S+]([O-])c1ccncc1)C12CC3CC(CC(C3)C1)C2 (stereo not shown) [Compound 18, 1-(Adamantan-1-yl)-2-(pyridine-4-sulfinyl)ethan-1-one]",136 to 138,> 100,> 100,> 100,> 100,> 100,12,0.061,,,,
"O=C(COCc1ccccn1)C12CC3CC(CC(C3)C1)C2 [Compound 28, 1-(Adamantan-1-yl)-2-(pyridin-2-ylmethoxy)ethan-1-one]",,78,> 100,> 100,> 100,> 100,20,0.044,no metabolites identified,8.9,1.13,
"O=C(COCc1cccnc1)C12CC3CC(CC(C3)C1)C2 [Compound 31, 1-(Adamantan-1-yl)-2-(pyridin-3-ylmethoxy)ethan-1-one]",,1.6,23,> 100,,46,68,,no metabolites identified,3.7,2.13,
"O=C(CS(=O)(=O)Cc1ccccn1)C12CC3CC(CC(C3)C1)C2 [Compound 43, 1-(Adamantan-1-yl)-2-[(pyridin-2-ylmethyl)sulfonyl]ethan-1-one]",116 to 117,24,36,> 100,,24,> 100,0.035,,,,
"Cl.O=C(COCc1cccnc1)C12CC3CC(CC(C3)C1)C2 [Compound 62, 1-(Adamantan-1-yl)-2-(pyridin-3-ylmethoxy)ethan-1-one hydrochloride]",,,,,,,,,,,,> 4000
